# How the values were obtained:
# amyloid plaques = test: Brain plaque load in hAPP mice (thioflavin S and 6E10 Aβ staining); format: in vivo, mouse
# Method: For histomorphological analyses, 8 to 15 histological sections (10 μm) were prepared from one hemisphere of 12 animals (6 placebo, 6 CP-113,818; 3 male, 3 female per group). Number and surface area of amyloid plaques were evaluated in both cortex and hippocampus. 6E10 (Signet; 1:5000; monoclonal) as primary antibody, and Cy™3 fluorescent goat anti-mouse IgG as secondary antibody (Jackson Immuno Research) were used for Aβ staining. Sections of the same brains were also used for synaptophysin staining (Chemicon; 1:5000; monoclonal). Synaptophysin immunoreactive spots were counted by light microscopy in the hippocampal CA1 region. The estimation of immunohistochemical reactions was done by computer-assisted quantification (IMAGE PRO PLUS, Media Cybernetics).
# Brain plaque load was evaluated by thioflavin S and immunohistochemical stainings (FIG. 3). Thioflavin S-positive plaques were barely detectable in the cortex of hAPP mice at 6.5 months of age and absent in CP-113,818-treated animals (FIG. 2A). […] Individual differences in amyloid load reflected the well-known variability in Aβ accumulation that has been previously observed in transgenic mice, specifically at early stages of pathology (Johnson-Wood et al., 1997; Kawarabayashi et al., 2001). Amyloid load in the cortex of female animals was two-fold higher than in males, in agreement with previous studies in other mouse models of AD (Callahan et al., 2001; Lee et al., 2002; Wang et al., 2003). The hippocampus, slower than the cortex in developing amyloid pathology in hAPP mice, contained significant numbers of Aβ deposits only in female, but not in male, animals (FIG. 3B and FIG. 4). […] Importantly, when the two genders were considered separately, plaque numbers were reduced to an equal extent in females and males, by 89%, p<0.00002, and 88%, p<0.0002, respectively (FIG. 3B). […] In females the decrease was from 0.45 to 0.04 percent plaque load (p<0.00002), while in males it was from 0.10 to 0.02 (p<0.00013; FIG. 4B). As mentioned above, amyloid load in the hippocampus of male animals was too low at this age for reliable assessment of changes caused by CP-113,818.
# ACAT = test: Cholesterol determinations in non-transgenic mice given 21 day-release CP-113,818 pellets; format: in vivo; details: 21 days
# From the text: hAPP transgenic mice overexpress human APP751 with the London (V717I) and Swedish (K670M/N671L) mutations under the regulatory control of the neuron specific murine (m)Thy-1 promoter (mThy-1-hAPP751; heterozygous with respect to the transgene, on a C57BL/6 F3 background) (Rockenstein et al., 2001). The hAPP colony was sustained by crossing transgenic APP751 with C57BL/6 (Harlan Winkelman, Germany). Corresponding littermates were used for control studies. All mice were housed according to standard animal care protocols, fed ad libitum with standard chow diet, and maintained in a pathogen-free environment in single ventilated cages at JSW Research. The transgenic status of each animal was confirmed by real time PCR of tail snips using specific primers and the appropriate hybridization probe. A modified Irvine test was regularly performed prior to the experiment to assess the neurological status of the animals; those showing disturbances were excluded from the experiments. Mice were then randomly assigned to different treatment groups and individually coded. Investigators performing behavioral testing, biochemical analyzes and histomorphological evaluations of the brains were blinded in terms of group allocation of the mice. CP-113,818, a potent inhibitor of both ACAT1 and ACAT2 (Chang et al., 2000), was graciously provided by Dr. James Harwood, Pfizer (Groton, Conn.). The drug was compounded in release pellets for continuous dosing by Innovative Research of America (Sarasota, Fla.). Only the test compound, but not carrier biopolymers and substances in the pellets, are released into the bloodstream. Pellets were generated to provide either 21 day or 60 days of continuous drug delivery. For implantation of pellets, animals were anesthized with isofluorance. Then, sterile pellets containing either CP-113,818 or placebo were implanted subcutaneously along the anterolateral aspect of the left shoulder with a special precision trocar in accordance with the suppliers instructions.
# Tissues were homogenized in the presence of trypsin (10 mg/ml) in a Dounce homogenizer on ice. Protein concentration of the homogenate was determined using the BCA protein assay kit (Pierce). The tissue homogenate was extracted in chloroform:methanol (2:1, v/v) overnight. Before drying the chloroform phase, polyoxyethylene-9-lauryl ether (Sigma; 5 μl/ml of extract) was added. Dried lipid pellets were dissolved in water and total amount of cholesterol was determined with an enzymatic assay (Sigma; cat. no. 402-20). As control, free cholesterol was determined with a different enzymatic assay (R-Biopharm GmbH, Darmstadt, Germany; cat. no. E0139050). The amount of cholesteryl-esters was calculated by subtracting free from total cholesterol. Finally, the values were normalized to protein concentration of the tissue homogenate and expressed in mg of cholesterol per g of protein.
# CP-113,818 is a fatty-acid anilide derivative designed to mimic the acyl-CoA substrate of ACAT and a potent ACAT inhibitor in vitro, cell culture, and animals (Chang et al., 2000; Marzetta et al., 1994; Puglielli et al., 2001). In order to determine the in vivo efficacy of CP-113,818 in reducing mouse brain cholesteryl-ester levels, we initially treated non-transgenic animals with the ACAT inhibitor. Most ACAT inhibitors are poorly absorbed when administered orally, and are quickly turned over in the blood or tissues (Marzetta et al., 1994). […]
# [1] = 7.1 mg/kg/day, subcutaneous pellet, vs placebo
smiles,measurement,setting,value
"CCCCCCCC[C@H](SCCCCCC)C(=O)Nc1c(SC)cc(C)nc1SC [CP-113,818]","reduction of cortical plaque number, females","amyloid plaques; female hAPP mice, cortex, 6E10 staining, 57 days",89%
same,cortical plaque numbers / Aβ staining at beginning versus end of treatment,"amyloid plaques; female hAPP mice, cortex, day 0 without vs day 57 with treatment",remarkably similar
same,"percent plaque load in cortex after treatment, females","amyloid plaques; female hAPP mice, cortex, placebo 0.45",0.04%
same,decrease of plaque number in the hippocampus of female mice,"amyloid plaques; female hAPP mice, hippocampus, 57 days",99%
same,"percent plaque load in hippocampus after treatment, females","amyloid plaques; female hAPP mice, hippocampus, placebo 0.295",0.09%
same,thioflavin S-positive plaques in the cortex,amyloid plaques; hAPP mice at 6.5 months of age,absent
same,reduction of cortical plaque number,"amyloid plaques; hAPP mice, all animals, cortex, 6E10 staining, 57 days",88%
same,decrease of plaque burden (percent of cortex covered by plaques),"amyloid plaques; hAPP mice, all animals, cortex, 57 days",90%
same,"reduction of cortical plaque number, males","amyloid plaques; male hAPP mice, cortex, 6E10 staining, 57 days",88%
same,"percent plaque load in cortex after treatment, males","amyloid plaques; male hAPP mice, cortex, placebo 0.10",0.02%
same,effect on food consumption and body weight,ACAT; 7.1 mg/kg per day,absence of any evident effect
same,reduction of cholesteryl-ester levels in the brain,ACAT; [1],86%
same,reduction of total cholesterol in the serum,ACAT; [1],29%
same,decrease of free or membrane cholesterol in the liver,"ACAT; 0.2-7.1 mg/kg/day, dose-dependent",up to 37%
same,effect on free cholesterol levels in the brain,ACAT,no effect

# From patent publication US20050118226A1, “Methods for treating ACAT-related diseases” (priority 2003, published 2005)
